Assay results from BigSolDB 2.1.

CCOC(=O)c1ccc(O)cc1
solubility (mole fraction) (in acetonitrile, 278.15 K): 0.0703 | solubility (mole fraction) (in acetonitrile, 283.15 K): 0.0822 | solubility (mole fraction) (in acetonitrile, 288.15 K): 0.0995 | solubility (mole fraction) (in acetonitrile, 293.15 K): 0.121 | solubility (mole fraction) (in acetonitrile, 298.15 K): 0.148 | solubility (mole fraction) (in acetonitrile, 303.15 K): 0.178 | solubility (mole fraction) (in acetonitrile, 308.15 K): 0.214 | solubility (mole fraction) (in acetonitrile, 313.15 K): 0.252 | solubility (mole fraction) (in acetonitrile, 318.15 K): 0.293 | solubility (mole fraction) (in water, 278.15 K): 2.62e-05 | solubility (mole fraction) (in water, 283.15 K): 3.64e-05 | solubility (mole fraction) (in water, 288.15 K): 5.25e-05 | solubility (mole fraction) (in water, 293.15 K): 7.52e-05 | solubility (mole fraction) (in water, 298.15 K): 9.7e-05 | solubility (mole fraction) (in water, 303.15 K): 0.000119 | solubility (mole fraction) (in water, 308.15 K): 0.000145 | solubility (mole fraction) (in water, 313.15 K): 0.000169 | solubility (mole fraction) (in water, 318.15 K): 0.000192
